Three compounds from patent US4746736A, “Carbapenem antibiotics” (priority 1986, dated 1988) can be followed below.

Data set [1] has as its system H. influenzae A21522. Nature of the data set: In vitro MIC by tube dilution, H. influenzae A21522. The format is cell-based. As to conditions: Haemophilus influenzae.
The subject of data set [2] is H. influenzae A20178. Description: In vitro MIC by tube dilution, H. influenzae A20178. As to conditions: Haemophilus influenzae. The format is cell-based.
Data set [3] can be described thus: Blood levels in mice after intramuscular administration. The following applies: 20 mg/kg i.m., mice (compiled table).
Excerpt: Compounds were solubilized in 0.1 M phosphate buffer pH 7.
Values are from a single test; 4 mice used per compound.
Compounds were solubilized in 0.1 M phosphate buffer, pH 7.
Values based on a single test; 4 mice per compound.
Data set [4] has as its system S. pneumoniae A-9585. Description: In vitro MIC by tube dilution, S. pneumoniae A-9585. The format is cell-based.
Data set [5] has as its system E. cloacae A-9656. Description: In vitro MIC by tube dilution, E. cloacae A-9656. The format is cell-based.
Data set [6] deals with K. pneumoniae A20468. Description: In vitro MIC by tube dilution, K. pneumoniae A20468. Type of data set: cell-based.
The subject of data set [7] is S. aureus A-9606 (Pen-res.). Nature of the data set: In vitro MIC by tube dilution, S. aureus A-9606 (Pen-res.). The format is cell-based. As to conditions: S. aureus A-9606 (Pen-res).
In data set [8] the test system is E. coli A15119. Nature of the data set: In vitro MIC by tube dilution, E. coli A15119. Type of data set: cell-based. The following applies: E. coli A15119.
Data set [9] concerns P. aeruginosa A-9843A. Description: In vitro MIC by tube dilution, P. aeruginosa A-9843A. Type of data set: cell-based. The following applies: P. aeruginosa A-9843a.
Data set [10] concerns P. mirabilis A-9900. Description: In vitro MIC by tube dilution, P. mirabilis A-9900. Type of data set: cell-based.
The subject of data set [11] is S. faecalis A20688. Description: In vitro MIC by tube dilution, S. faecalis A20688. The format is cell-based.
The test system of data set [12] is P. rettgeri A22424. Description: In vitro MIC by tube dilution, P. rettgeri A22424. The format is cell-based.
The test system of data set [13] is P. aeruginosa A21213. Nature of the data set: In vitro MIC by tube dilution, P. aeruginosa A21213. The format is cell-based. As to conditions: P. aeruginosa A21213.
Data set [14] relates to K. pneumoniae A-9664. Nature of the data set: In vitro MIC by tube dilution, K. pneumoniae A-9664. Type of data set: cell-based.
The test system of data set [15] is P. aeruginosa A-9843a. The format is in vivo. The following applies: P. aeruginosa A9843A, mice, i.m.
Description: The PD50 (dose in mg/kg required to give protection to 50% of the infected mice) is indicated.
Treatment Schedule: Except for E. coli A15119 and K. pneumoniae A9964,
mice were treated i.m. with drugs 0 and 2 hours postinfection.
5 mice per dose were used for each test
The PD50 (dose in mg/kg) required to give protection to 50% of the infected mice is indicated.
The subject of data set [16] is P. vulgaris A21559. Nature of the data set: In vitro MIC by tube dilution, P. vulgaris A21559. As to conditions: P. vulgaris A21559. Type of data set: cell-based.
Data set [17] deals with E. cloacae A-9659. Nature of the data set: In vitro MIC by tube dilution, E. cloacae A-9659. The format is cell-based.
For data set [18], the system named is S. marcescens A20019. Nature of the data set: In vitro MIC by tube dilution, S. marcescens A20019. Type of data set: cell-based.
For data set [19], the system named is E. coli A20341-1. Nature of the data set: In vitro MIC by tube dilution, E. coli A20341-1. Type of data set: cell-based.
The subject of data set [20] is S. pyogenes A9604. Description: In vitro MIC by tube dilution, S. pyogenes A9604. Type of data set: cell-based.
In data set [21] the test system is S. aureus A-9537. Description: In vitro MIC by tube dilution, S. aureus A-9537. The format is cell-based.
The subject of data set [22] is P. morganii A15153. Description: In vitro MIC by tube dilution, P. morganii (M. morganii) A15153. Type of data set: cell-based.
Data set [23] deals with H. influenzae A21518. Nature of the data set: In vitro MIC by tube dilution, H. influenzae A21518. The format is cell-based. The following applies: Haemophilus influenzae.
In data set [24] the test system is H. influenzae A-9833. Nature of the data set: In vitro MIC by tube dilution, H. influenzae A-9833. Type of data set: cell-based. As to conditions: Haemophilus influenzae, A9833.

Converted amounts (≈) assume the structure as drawn. Structures can show the parent of a compound that is named as a salt. Where two headings read alike, the source gives them in different places. A value given as a limit tells only on which side of the number the result lay.

Take `C[C@@H](O)[C@H]1C(=O)N2C(C(=O)[O-])=C(SCc3cc[n+](C)cc3)C[C@H]12` [Example 1, 1-Methyl-4-[2-carboxy-6α-[1(R)-hydroxyethyl]-7-oxo-1-azabicyclo[3.2.0]hept-2-en-3-thiomethyl]pyridinium hydroxide inner salt]: the MIC in [1] was 8 µg/mL; in data set [2], 32 µg/mL.

The compound “3-[4-(N,N-dimethyl-1,2,3-triazolium)methylthio]-6α-[1-(R)-hydroxyethyl]-7-oxo-1-azabicyclo(3.2.0)hept-2-ene-2-carboxylate [Example 15 "B"]” had an AUC in data set [3] of 7400 ng·h/mL. Moreover, in data set [3], the Cmax was 15900 ng/mL. The MIC stood at 0.0005 µg/mL in data set [4] (S. pneumoniae A-9585); 0.03 µg/mL in data set [5] (E. cloacae A-9656); 0.016 µg/mL in data set [6] (K. pneumoniae A20468); 0.008 µg/mL in data set [7]; 0.008 µg/mL in [8]; 2 µg/mL in data set [9]. Also, the MIC in data set [10] (P. mirabilis A-9900) came to 0.03 µg/mL; in data set [11] (S. faecalis A20688) it was 0.5 µg/mL; in data set [12] (P. rettgeri A22424) it was 0.13 µg/mL; in data set [13] it was 0.13 µg/mL; in data set [14], 0.03 µg/mL; in [16], 0.008 µg/mL. Besides, the MIC was determined as 0.016 µg/mL in [17] (E. cloacae A-9659); 0.016 µg/mL in [18]; 0.008 µg/mL in data set [19]; 0.001 µg/mL in [20] (S. pyogenes A-9604); 0.016 µg/mL in data set [21] (S. aureus A-9537 +50% serum); 0.004 µg/mL in data set [21] (S. aureus A-9537, no serum). The MIC in data set [22] (M. morganii A15153) came to 0.06 µg/mL. This compound showed a PD50/treatment in data set [15] of 0.89 mg/kg.

As for `Cc1ccc[n+](C)c1CSC1=C(C(=O)[O-])N2C(=O)[C@H]([C@@H](C)O)[C@H]2C1` [Example 7, 3-(N-Methyl-3-methylpyridine-2-methanethio)-6α-[1-(R)-hydroxyethyl]-7-oxo-1-azabicyclo(3.2.0)hept-2-ene-2-carboxylate], the MIC in data set [4] (Streptococcus pneumoniae, A9585, S. pneumoniae A-9585, read-out: MIC) was 0.004 µg/mL (≈ 0.0115 µM); in data set [5] (Enterobacter cloacae, A9656, E. cloacae A-9656, read-out: MIC), 0.016 µg/mL (≈ 0.0459 µM); in data set [6] (Klebsiella pneumoniae, A20468, K. pneumoniae A20468, read-out: MIC) it was 0.016 µg/mL (≈ 0.0459 µM); in data set [7] (Staphylococcus aureus, read-out: MIC) it was 0.016 µg/mL (≈ 0.0459 µM); in data set [8] (Escherichia coli, read-out: MIC), 0.004 µg/mL (≈ 0.0115 µM); in [23], over 32 µg/mL. Further, the MIC was 1 µg/mL (≈ 2.87 µM) in data set [9] (Pseudomonas aeruginosa, A9843A, read-out: MIC); 0.016 µg/mL (≈ 0.0459 µM) in [10] (Proteus mirabilis, A9900, P. mirabilis A-9900, read-out: MIC); 0.13 µg/mL (≈ 0.373 µM) in [11] (Enterococcus faecalis, A20688, S. faecalis A20688, read-out: MIC); 0.06 µg/mL (≈ 0.172 µM) in [12] (Providencia rettgeri, A22424, P. rettgeri A22424, read-out: MIC); 0.016 µg/mL (≈ 0.0459 µM) in data set [14] (Klebsiella pneumoniae, A9664, read-out: MIC); 0.016 µg/mL (≈ 0.0459 µM) in data set [17] (Enterobacter cloacae, A9659, E. cloacae A-9659, read-out: MIC). Also, the MIC was 0.008 µg/mL (≈ 0.023 µM) in data set [18] (Serratia marcescens, read-out: MIC); over 32 µg/mL in data set [24]; 0.004 µg/mL (≈ 0.0115 µM) in data set [19] (Escherichia coli, A203411, read-out: MIC); 0.004 µg/mL (≈ 0.0115 µM) in [20] (Streptococcus pyogenes, A9604, S. pyogenes A-9604, read-out: MIC); 0.03 µg/mL (≈ 0.0861 µM) in data set [21] (Staphylococcus aureus, A9537, S. aureus A-9537 +50% serum, read-out: MIC); 0.008 µg/mL (≈ 0.023 µM) in [21] (Staphylococcus aureus, A9537, S. aureus A-9537, no serum, read-out: MIC). For the same compound, in data set [22] (Morganella morganii, A15153, M. morganii A15153, read-out: MIC), the MIC came to 0.016 µg/mL (≈ 0.0459 µM).
